Assay [1] has as its system two-spotted spider mites. The experiment in a line: Ovicidal test on two-spotted spider mites. It counts as in vivo, two-spotted spider mite. As to conditions: Tetranychus urticae, 144 h; 10 ppm spray, ovicidal rate 6 days after spraying. As for the experimental part: A piece of non-woven fabric (4.5×5.5 cm) was suspended inside a plastic cup through an incision made in the lid of the plastic cup. After water was poured into the cup, the cup was covered with the lid. A kidney bean leaf (about 3.5×4.5 cm) was then placed on the sufficiently soaked, non-woven fabric. Twenty female adults of two-spotted spider mite were placed on the top of the leaf, and the fabric and leaf were placed in a thermostatic chamber having a temperature of 25±2° C. and a humidity of 40% and 16L8D. The next day, after the number of the female adults was adjusted once more to 20, 2 mL of a miticidal formulation containing the compound of the invention (10 ppm) prepared in the same manner as in test example 1 was sprayed onto the leaf, and the leaf was air-dried and placed in a thermostatic chamber (25±2° C. and a humidity of 50%). The ovicidal rate of the two-spotted spider mites was calculated 6 days after the spraying of the miticidal formulation.

The subject of assay [2] is two-spotted spider mites. The experiment in a line: Miticidal test on two-spotted spider mite (leaf spray). Format: in vivo. The conditions noted are these: Tetranychus urticae, in Phaseolus vulgaris, 48 h, read-out: Mortality of mites (%). From the text:
A piece of non-woven fabric (4.5×5.5 cm) was suspended inside a plastic cup through an incision made in the lid of the plastic cup. After water was poured into the cup, the cup was covered with the lid. A kidney bean leaf (about 3.5×4.5 cm) was then placed on the sufficiently soaked, non-woven fabric. Another kidney bean leaf with two-spotted spider mites (about 30 mite samples) was placed on top of the first leaf, and the fabric and leaves were placed in a thermostatic chamber having a temperature of 25±2° C. and a humidity of 40% overnight. Next morning the top leaf was removed as the mite population had already moved to the lower leaf.
Miticidal formulations containing the compound of the invention (100 ppm and 5 ppm) were prepared by adding an aqueous solution (100 ppm) of Sorpol 355 (manufactured by Tobo Kagaku Co., Ltd.) to a methanol solution of the compound of the invention. These miticidal formulations were sprayed onto the leaves, and the leaves were air-dried and placed in a thermostatic chamber (25±2° C. and a humidity of 50%). The mortality rate of the two-spotted spider mites was calculated after 2 days.

A word on the inhibition: it is how much of the control response was suppressed. The mortality is the percentage killed. On to `Cc1cc(F)c(-c2cc(C(F)(F)C(F)(F)C(F)(F)F)on2)cc1[S+]([O-])CC(F)(F)F` (stereo not drawn) [Compound 8, 3-(2-fluoro-4-methyl-5-((2,2,2-trifluoroethyl)sulfinyl)phenyl)-5-(heptafluoropropyl)isoxazole], for which, in the assay with two-spotted spider mites [1], 10 ppm produced 90% inhibition. Further, in the assay on two-spotted spider mites [2], the mortality at 5 ppm is 100% and the mortality at 100 ppm was 100%.

With `Cc1cc(Cl)c(-c2cc(C(F)(F)c3ccccc3)on2)cc1SCC(F)(F)F` [Compound 52, 3-(2-chloro-4-methyl-5-((2,2,2-trifluoroethyl)thio)phenyl)-5-(difluoro(phenyl)methyl)isoxazole], the inhibition at 10 ppm in the assay on two-spotted spider mites [1] worked out at 32%. Further, in the assay on two-spotted spider mites [2], the mortality at 5 ppm worked out at 61% and the mortality at 100 ppm came to 100%.

`Cc1cc(C)c([S+]([O-])CC(F)(F)F)cc1-c1cc(C(F)(F)Cl)on1` (stereo not drawn) [Compound 50, 5-(chlorodifluoromethyl)-3-(2,4-dimethyl-5-((2,2,2-trifluoroethyl)sulfinyl)phenyl)isoxazole] displayed an inhibition at 10 ppm in the assay on two-spotted spider mites [1] of 97%. In the assay on two-spotted spider mites [2], the mortality at 5 ppm came to 96% and the mortality at 100 ppm amounted to 100%.

As for `Cc1cc(C)c(-c2cc(C(F)(F)c3ccccc3)on2)cc1SCC(F)(F)F` [Compound 40, 5-(difluoro(phenyl)methyl)-3-(2,4-dimethyl-5-((2,2,2-trifluoroethyl)thio)phenyl)isoxazole], in the assay on two-spotted spider mites [1], 10 ppm produced 89% inhibition. In the assay with two-spotted spider mites [2], the mortality at 5 ppm amounted to 33% and the mortality at 100 ppm stood at 100%.

On to `Cc1cc(Cl)c(-c2cc(C(F)(F)c3ccccc3)on2)cc1[S+]([O-])CC(F)(F)F` (stereo not drawn) [Compound 53, 3-(2-chloro-4-methyl-5-((2,2,2-trifluoroethyl)sulfinyl)phenyl)-5-(difluoro(phenyl)methyl)isoxazole], for which at 10 ppm the inhibition with two-spotted spider mites [1] was 90%. In the assay on two-spotted spider mites [2], the mortality at 5 ppm amounted to 64% and the mortality at 100 ppm is 100%.

Molecule `Cc1cc(C)c(-c2cc(C(F)(F)Cl)on2)cc1SCC(F)(F)F` [Compound 49, 5-(chlorodifluoromethyl)-3-(2,4-dimethyl-5-((2,2,2-trifluoroethyl)thio)phenyl)isoxazole] had an inhibition at 10 ppm in the assay with two-spotted spider mites [1] of 0%. Further, in the assay with two-spotted spider mites [2], the mortality at 5 ppm turned out to be 6% and the mortality at 100 ppm was 100%.

In the assay with two-spotted spider mites [1], `Cc1cc(Cl)c(-c2cc(C(F)(F)F)on2)cc1[S+]([O-])CC(F)(F)F` (stereo not drawn) [Compound 23, 3-(2-chloro-4-methyl-5-((2,2,2-trifluoroethyl)sulfinyl)phenyl)-5-(trifluoromethyl)isoxazole] displayed an inhibition at 10 ppm of 100%. In addition, in the assay with two-spotted spider mites [2], the mortality at 5 ppm worked out at 100% and the mortality at 100 ppm was 100%.

Take `Cc1cc(F)c(-c2cc(C(F)(F)c3ccccc3)on2)cc1SCC(F)(F)F` [Compound 19, 5-(difluoro(phenyl)methyl)-3-(2-fluoro-4-methyl-5-((2,2,2-trifluoroethyl)thio)phenyl)isoxazole]: the inhibition at 10 ppm in the assay on two-spotted spider mites [1] worked out at 100%. Moreover, in the assay with two-spotted spider mites [2], the mortality at 5 ppm was determined as 100% and the mortality at 100 ppm was found to be 100%.

For the molecule `Cc1cc(F)c(-c2cc(C(F)(F)F)on2)cc1SCC(F)(F)F` [Compound 1, 3-(2-fluoro-4-methyl-5-((2,2,2-trifluoroethyl)thio)phenyl)-5-(trifluoromethyl)isoxazole], in the assay on two-spotted spider mites [2], the mortality at 5 ppm came out at 30% and the mortality at 100 ppm is 100%.

For `Cc1cc(Cl)c(-c2cc(C(F)(F)F)on2)cc1SCC(F)(F)F` [Compound 22, 3-(2-chloro-4-methyl-5-((2,2,2-trifluoroethyl)thio)phenyl)-5-(trifluoromethyl)isoxazole], in the assay on two-spotted spider mites [2], the mortality at 5 ppm came out at 73% and the mortality at 100 ppm was determined as 100%.

Regarding `Cc1cc(C)c(-c2cc(C(F)(F)F)on2)cc1SCC(F)(F)F` [Compound 25, 3-(2,4-dimethyl-5-((2,2,2-trifluoroethyl)thio)phenyl)-5-(trifluoromethyl)isoxazole], in the assay on two-spotted spider mites [2], the mortality at 5 ppm is 10% and the mortality at 100 ppm stood at 100%.

The values above are taken from US11116218B2, “Isoxazole compound or a salt thereof” (OAT AGRIO CO., LTD., priority 2017, dated 2021).
